Experimental data as given in PubChem BioAssay (NCI).
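A five-concentration, 48-hour dose response in 96-well plates underlies each endpoint, interpolated linearly between surrounding concentrations. TGI is the concentration that stops growth completely.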

Legend:
Test in all cases: NCI anticancer screen, dose series, 48 h
IGROV1 ovarian = test system: IGROV1 ovarian
SK-OV-3 ovarian = test system: SK-OV-3 ovarian
SK-MEL-5 melanoma = test system: SK-MEL-5 melanoma
DU-145 prostate = test system: DU-145 prostate
786-0 renal = test system: 786-0 renal
NCI/ADR-RES ovarian = test system: NCI/ADR-RES ovarian
OVCAR-8 ovarian = test system: OVCAR-8 ovarian
HCC-2998 colon = test system: HCC-2998 colon
RXF 393 renal = test system: RXF 393 renal
HT29 colon = test system: HT29 colon
ACHN renal = test system: ACHN renal
PC-3 prostate = test system: PC-3 prostate
LOX IMVI melanoma = test system: LOX IMVI melanoma
SW-620 colon = test system: SW-620 colon
RPMI-8226 leukemia = test system: RPMI-8226 leukemia
HOP-92 NSCLC = test system: HOP-92 NSCLC
MOLT-4 leukemia = test system: MOLT-4 leukemia
MALME-3M melanoma = test system: MALME-3M melanoma
HCT-116 colon = test system: HCT-116 colon
SNB-75 CNS = test system: SNB-75 CNS
OVCAR-3 ovarian = test system: OVCAR-3 ovarian
SF-268 CNS = test system: SF-268 CNS
A498 renal = test system: A498 renal
MCF7 breast = test system: MCF7 breast
NCI-H460 lung = test system: NCI-H460 lung
HS 578T breast = test system: HS 578T breast
SR leukemia = test system: SR leukemia
CCRF-CEM leukemia = test system: CCRF-CEM leukemia
A549 NSCLC = test system: A549 NSCLC
TK-10 renal = test system: TK-10 renal
SNB-19 CNS = test system: SNB-19 CNS
OVCAR-5 ovarian = test system: OVCAR-5 ovarian
U251 CNS = test system: U251 CNS
SK-MEL-28 melanoma = test system: SK-MEL-28 melanoma
CAKI-1 renal = test system: CAKI-1 renal
COLO 205 colon = test system: COLO 205 colon
NCI-H23 lung = test system: NCI-H23 lung
KM12 colon = test system: KM12 colon
EKVX NSCLC = test system: EKVX NSCLC
M14 melanoma = test system: M14 melanoma
HCT-15 colon = test system: HCT-15 colon
UO-31 renal = test system: UO-31 renal
NCI-H522 lung = test system: NCI-H522 lung
HOP-62 NSCLC = test system: HOP-62 NSCLC
UACC-257 melanoma = test system: UACC-257 melanoma
NCI-H226 lung = test system: NCI-H226 lung
SF-539 CNS = test system: SF-539 CNS
MDA-N = test system: MDA-N
UACC-62 melanoma = test system: UACC-62 melanoma
MDA-MB-435 = test system: MDA-MB-435
MDA-MB-231 breast = test system: MDA-MB-231 breast
HL-60(TB) leukemia = test system: HL-60(TB) leukemia
BT-549 breast = test system: BT-549 breast
K-562 leukemia = test system: K-562 leukemia
SF-295 CNS = test system: SF-295 CNS
OVCAR-4 ovarian = test system: OVCAR-4 ovarian
SN12C renal = test system: SN12C renal

Cc1cs/c(=N\C(P(=O)(O)O)P(=O)(O)O)n1C
TGI (IGROV1 ovarian): > 100 µM
TGI (SK-OV-3 ovarian): > 100 µM
TGI (SK-MEL-5 melanoma): > 100 µM
TGI (DU-145 prostate): > 100 µM
TGI (786-0 renal): > 100 µM
TGI (NCI/ADR-RES ovarian): > 100 µM
TGI (OVCAR-8 ovarian): > 100 µM
TGI (HCC-2998 colon): > 100 µM
TGI (RXF 393 renal): > 100 µM
TGI (HT29 colon): > 100 µM
TGI (ACHN renal): > 100 µM
TGI (PC-3 prostate): > 100 µM
TGI (LOX IMVI melanoma): > 100 µM
TGI (SW-620 colon): > 100 µM
TGI (RPMI-8226 leukemia): > 100 µM
TGI (HOP-92 NSCLC): > 100 µM
TGI (MOLT-4 leukemia): > 100 µM
TGI (MALME-3M melanoma): > 100 µM
TGI (HCT-116 colon): > 100 µM
TGI (SNB-75 CNS): > 100 µM
TGI (OVCAR-3 ovarian): > 100 µM
TGI (SF-268 CNS): > 100 µM
TGI (A498 renal): > 100 µM
TGI (MCF7 breast): > 100 µM
TGI (NCI-H460 lung): > 100 µM
TGI (HS 578T breast): 47.8 µM
TGI (SR leukemia): > 100 µM
TGI (CCRF-CEM leukemia): > 100 µM
TGI (A549 NSCLC): > 100 µM
TGI (TK-10 renal): > 100 µM
TGI (SNB-19 CNS): > 100 µM
TGI (OVCAR-5 ovarian): > 100 µM
TGI (U251 CNS): > 100 µM
TGI (SK-MEL-28 melanoma): > 100 µM
TGI (CAKI-1 renal): > 100 µM
TGI (COLO 205 colon): > 100 µM
TGI (NCI-H23 lung): > 100 µM
TGI (KM12 colon): > 100 µM
TGI (EKVX NSCLC): > 100 µM
TGI (M14 melanoma): > 100 µM
TGI (HCT-15 colon): > 100 µM
TGI (UO-31 renal): > 100 µM
TGI (NCI-H522 lung): > 100 µM
TGI (HOP-62 NSCLC): > 100 µM
TGI (UACC-257 melanoma): > 100 µM
TGI (NCI-H226 lung): > 100 µM
TGI (SF-539 CNS): > 100 µM
TGI (MDA-N): > 100 µM
TGI (UACC-62 melanoma): > 100 µM
TGI (MDA-MB-435): > 100 µM
TGI (MDA-MB-231 breast): > 100 µM
TGI (HL-60(TB) leukemia): > 100 µM
TGI (BT-549 breast): > 100 µM
TGI (K-562 leukemia): > 100 µM
TGI (SF-295 CNS): > 100 µM

COc1cc(OC)c(CSCC(NC(=O)OCC2c3ccccc3-c3ccccc32)C(=O)O)c(OC)c1 (stereo not drawn)
TGI (IGROV1 ovarian): > 10 µM
TGI (SK-MEL-5 melanoma): > 10 µM
TGI (DU-145 prostate): > 10 µM
TGI (NCI/ADR-RES ovarian): > 10 µM
TGI (OVCAR-8 ovarian): > 10 µM
TGI (RXF 393 renal): > 10 µM
TGI (HT29 colon): > 10 µM
TGI (ACHN renal): > 10 µM
TGI (PC-3 prostate): > 10 µM
TGI (SW-620 colon): > 10 µM
TGI (HOP-92 NSCLC): > 10 µM
TGI (HCT-116 colon): > 10 µM
TGI (OVCAR-4 ovarian): > 10 µM
TGI (SNB-75 CNS): > 10 µM
TGI (OVCAR-3 ovarian): > 10 µM
TGI (SF-268 CNS): > 10 µM
TGI (A498 renal): > 10 µM
TGI (A549 NSCLC): > 10 µM
TGI (TK-10 renal): > 10 µM
TGI (SNB-19 CNS): > 10 µM
TGI (OVCAR-5 ovarian): > 10 µM
TGI (U251 CNS): > 10 µM
TGI (SK-MEL-28 melanoma): > 10 µM
TGI (CAKI-1 renal): > 10 µM
TGI (COLO 205 colon): > 10 µM
TGI (NCI-H23 lung): > 10 µM
TGI (KM12 colon): > 10 µM
TGI (EKVX NSCLC): > 10 µM
TGI (M14 melanoma): > 10 µM
TGI (HCT-15 colon): > 10 µM
TGI (SN12C renal): > 10 µM
TGI (UO-31 renal): > 10 µM
TGI (NCI-H226 lung): > 10 µM
TGI (SF-539 CNS): > 10 µM
TGI (MDA-N): > 10 µM
TGI (MDA-MB-435): > 10 µM
TGI (MDA-MB-231 breast): > 10 µM
TGI (SF-295 CNS): > 10 µM
